Laboratory results taken from patent US11992494B2, “Cyclopentathiophene carboxamide derivatives as platelet activating factor receptor antagonists” (Boehringer Ingelheim International GmbH, priority 2021, dated 2024).
Read-outs that look alike come from different tables or passages of the source.

How the values were obtained:
PAFR [1] = target: T1, PAFR (Homo sapiens, UniProt P25105); conditions: cited from earlier work; for Ki: literature values (Weber et al.; EP0368175A1), read-out: PAFR affinity (Ki)
Target sequence in this assay (P25105 whole entry, species assumed): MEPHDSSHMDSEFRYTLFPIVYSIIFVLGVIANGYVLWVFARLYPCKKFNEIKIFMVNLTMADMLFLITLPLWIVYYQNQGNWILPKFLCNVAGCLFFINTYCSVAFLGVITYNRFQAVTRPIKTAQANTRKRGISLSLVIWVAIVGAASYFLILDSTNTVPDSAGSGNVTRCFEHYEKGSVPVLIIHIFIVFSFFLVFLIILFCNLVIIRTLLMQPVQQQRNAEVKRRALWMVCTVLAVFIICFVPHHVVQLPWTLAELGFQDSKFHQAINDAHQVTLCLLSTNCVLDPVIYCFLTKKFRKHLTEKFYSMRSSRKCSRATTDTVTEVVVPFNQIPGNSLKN

PAFR [2] = target: T1, PAFR; conditions: PAFR binding, Miyazawa et al.; cited from earlier work
Target sequence in this assay (P25105 whole entry, species assumed): as above

PAFR [3] = target: T1, PAFR; experiment: cellular HTRF IP1 assay: inhibition of PAFR activation by PAF C-16 ligand (endpoint assay); format: cell-based; parameters: expressed in transfected cells; host or cells: HEK293
Outline: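 HEK293 cells overexpressing human PAFR were preincubated with compound (1% DMSO) 90 min at 37°C, then challenged with 11 nM PAF C-16 for 60 min in HBSS/20 mM HEPES pH 7.4/50 mM LiCl/0.1% BSA. IP1 accumulation read by HTRF (665/620 nm emission).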
Target sequence in this assay (P25105 whole entry): as the sequence (P25105 whole entry, species assumed) above

[4] = Evaluation of chemical stability (solution state stress conditions, HPLC); format: physicochemical
Method: Evaluation of Chemical Stability Within solution state stability studies the influence of temperature, pH and light exposure are analyzed. Stress conditions are applied in order to get a fast signal of possible chemical decomposition via hydrolytical, oxidative or photodegradative pathways. […] The stressed/stored samples are analysed by a stability indicative chiral or achiral HPLC-method, as appropriate. Degradation studies are used to simulate chemical stability of compounds in the acidic part of the gastrointestinal tract. The compounds of the invention show high chemical stability in acidic aqueous media (pH value ca. 1.2) what makes their application as medical drugs to treat human diseases less restricted and troublesome. […] Compound is dissolved in an HPLC vial in a mixture of acetonitrile/0.1 M aqueous HCl (ratio: 2:3; pH ca. 1.2) to get a concentration of approximately 0.25 mg/ml. The vial is then transferred into an HPLC autosampler system and maintained at the desired temperature of, e.g., 40° C. A first sample is taken and injected immediately into a standard HPLC system with a UV DAD detector. A further sample is injected after 24 hours. Amount of degraded compound is measured by determining the recovery rate of compound [%] for the 24 h injection using an HPLC standard gradient method. Therefore the peak area of the main peak for the first injection (AUt0) is determined and set as 100%. Peak area of the main peak is determined also for the 24 h injection (AU24 h) and expressed as fraction of (AU24 h)/(AUt0)[%]. Analogously, the amount of degraded compound is determined for stability examinations running for more than 1 day, e.g., for 3 days.

PAF = PAF (Homo sapiens, UniProt P25105); conditions: see EP0480455A1, cited from earlier work
Sequence of PAF (P25105 whole entry): as the sequence (P25105 whole entry, species assumed) above

[5] = HEK293 cells overexpressing human PAFR, PAF ligand 11 nM, Table 2
[6] = dedicated head-to-head comparison assay run: cyclopropylene vs di-methyl / cyclobutylene analogues
[7] = 40° C., ACN/0.1M aq. HCl (pH ca. 1.2)

Row | SMILES | Ki (PAFR [1]) | IC50 (PAFR [2]) | other results
1 | Cc1nnc2n1-c1sc3c(c1C(c1ccccc1Cl)=NC2)CC(C(=O)N1CCOCC1)C3 (racemic) [WEB 2170 (bepafant) racemate] | 15 nM | – | –
2 | Cc1nnc2n1-c1sc3c(c1C(c1ccccc1Cl)=NC2C)CCN(C(=O)OC(C)(C)C#N)C3 (single isomer, unassigned) [compound 34 of Miyazawa et al. (+) isomer] | – | 3.1 nM | –
3 | Cc1nnc2n1-c1sc3c(c1C(c1ccccc1Cl)=NC2C)CCN(C(=O)OC(C)(C)C#N)C3 (single isomer, unassigned) [compound 34 of Miyazawa et al. (−) isomer] | – | 500 nM | –
4 | C#CCCOC(=O)N1CCc2c(sc3c2C(c2ccccc2Cl)=NC(C)c2nnc(C)n2-3)C1 (single isomer, unassigned) [compound 35 of Miyazawa et al. (+) isomer] | – | 2.8 nM | –
5 | C#CCCOC(=O)N1CCc2c(sc3c2C(c2ccccc2Cl)=NC(C)c2nnc(C)n2-3)C1 (single isomer, unassigned) [compound 35 of Miyazawa et al. (−) isomer] | – | 420 nM | –
6 | Cc1nnc2n1-c1sc3c(c1C(c1ccccc1Cl)=NC2C)CC(C(=O)N1CCOCC1)C3 (single isomer, unassigned; (+)) [(+) 9dA] | 400 nM | – | –
7 | Cc1nnc2n1-c1sc3c(c1C(c1ccccc1Cl)=NC2C)CC(C(=O)N1CCOCC1)C3 (single isomer, unassigned; (+)) [(+) 9dB] | 3000 nM | – | –
8 | Cc1nnc2n1-c1sc3c(c1C(c1ccccc1Cl)=NC2)CC(C(=O)N1CCOCC1)C3 (single isomer, unassigned; (+)) [(+)-bepafant] | 660 nM | – | –
9 | Cc1nnc2n1-c1sc3c(c1C(c1ccccc1Cl)=NC2C)CC(C(=O)N1CCOCC1)C3 (single isomer, unassigned; (-)) [(−) 9dA] | 70 nM | – | –
10 | Cc1nnc2n1-c1sc3c(c1C(c1ccccc1Cl)=NC2C)CC(C(=O)N1CCOCC1)C3 (single isomer, unassigned; (-)) [(−) 9dB] | 8 nM | – | –
11 | Cc1nnc2n1-c1sc3c(c1C(c1ccccc1Cl)=NC2)CC(C(=O)N1CCOCC1)C3 (single isomer, unassigned; (-)) [(−)-bepafant] | 14 nM | – | –
12 | CCCN(CCC)C(=O)[C@@H]1Cc2sc3c(c2C1)C(c1ccccc1Cl)=NC1(CC1)c1nnc(C)n1-3 [Example 104, (13′S)-9′-(2-chlorophenyl)-3′-methyl-N, N-dipropyl-16′-thia-2′,4′,5′,8′-tetraazaspiro[cyclopropane-1,7′-tetracyclo[8.6.0.0^2,6.0^11,15]hexadecane]-1′(10′),3′,5′,8′,11′(15′)-pentaene-13′-carboxamide] | – | – | IC50 (PAFR [3]; [5]): 0.9 nM; Amount of degradation after 3 d at 40° C. in ACN/0.1M aq. HCl ([4]; 0.25 mg/ml, pH 1.2): 1.5%
13 | Cc1nnc2n1-c1sc3c(c1C(c1ccccc1Cl)=NC21CC1)C[C@H](C(=O)N1CCOCC1)C3 [Example 114] | – | – | IC50 (PAFR [3]; [5]): 7.2 nM; IC50 (PAFR [3]; [6]): 6.6 nM; Amount of degradation after 3 d at 40° C. in ACN/0.1M aq. HCl [4, 7]: 4%
14 | Cc1nnc2n1-c1sc3c(c1C(c1ccccc1Cl)=NC21CC1)C[C@H](C(=O)N[C@@H]1CCC(F)(F)C1)C3 [Example 124] | – | – | IC50 (PAFR [3]; [5]): 2.4 nM; IC50 (PAFR [3]; [6]): 2.6 nM; Amount of degradation after 3 d at 40° C. in ACN/0.1M aq. HCl [4, 7]: 2.5%
15 | C#CCCOC(=O)N1CCc2c(sc3c2C(c2ccccc2Cl)=NCc2nnc(C)n2-3)C1 [compound 18 of Miyazawa et al.] | – | 3.8 nM | –
16 | C#CCCOC(=O)N1CCc2c(sc3c2C(c2ccccc2Cl)=NC(C)(C)c2nnc(C)n2-3)C1 [compound 23 of Miyazawa et al.] | – | 160 nM | –
17 | C#CCCOC(=O)N1CCc2c(sc3c2C(c2ccccc2Cl)=NC(CC)(CC)c2nnc(C)n2-3)C1 [compound 25 of Miyazawa et al.] | – | 290 nM | –
18 | Cc1nnc2n1-c1sc(CCC(=O)N3CCOCC3)cc1C(c1ccccc1Cl)=NC2C (stereo not drawn) [example 1 of EP0368175A1 (−)-enantiomer] | – | – | binding to the PAFR of (−)-enantiomer relative to (+)-enantiomer (PAFR [1]; see EP0368175A1): (−)-enantiomer 35 times stronger binding
19 | Cc1nnc2n1-c1sc(CCC(=O)N3CCOCC3)cc1C(c1ccccc1Cl)=NC2C (stereo not drawn) [example 1 of EP0368175A1 S-configured isomer] | – | – | PAF-antagonistic activity relative to racemate (PAF): S-configured isomer with several times; PAF-antagonistic activity relative to racemate (PAF; listed as Compound B S-configured enantiomer): several times stronger
